By solubility is commonly meant the dissolved amount per volume that the medium holds. Low values mean little dissolved substance, high ones much dissolved substance. Broadly, the logP is the decadic logarithm of the partition coefficient of the neutral form, usually between octanol and water. Higher therefore signals higher lipophilicity.

Converted amounts (≈) assume the structure as drawn. “And” between values parts separate entries of the source, which are not always exact repeats. Equal entries are not always repeated. Some results are limits rather than exact numbers.

For series [1], the system named is cytochrome P450 reductase. Description: reduction by purified human cytochrome P450 reductase under hypoxia. It counts as in vitro ADME. The settings on record: 100% nitrogen. An excerpt: (§1) SR 4554 was reduced by mouse liver microsomes as well as purified rat and human cytochrome P450 reductase under hypoxia (100% nitrogen).
A short description of series [2]: urinary excretion of SR 4554 in non-tumor-bearing female Balb/c mice. It counts as in vivo, mouse. The settings on record: urine.
Series [3] relates to RIF-1 tumors. Kind of series: retention in RIF-1 tumor-bearing C3H/He mice by 19F magnetic resonance spectroscopy (and HPLC). It counts as in vivo, mouse. Here is the method: (§2) SR 4554 was administered as a single intraperitoneal injection of 180 mg/kg to RIF-1 tumor-bearing female C3 H/He mice and EMT-6 tumor-bearing female Balb/c mice. In some experiments, hydralazine ([…] i.v.) was administered 1 h prior to the administration of SR 4554. Magnetic resonance spectroscopy (MRS) was conducted on a 4.7 Tesla (SISCO) nuclear magnetic resonance (NMR) spectrometer using a double-tuned (^19 F/^2 H) circuit at 45 min and 6 hr post injection of SR 4554. Drug concentrations were obtained using a modification of the method of Thulborn et al. (1983) J. Magn. Reson. 55:357-371. Specifically, the ^19 F signal intensity was related to the natural abundance ^2 H signal from tissue water. Calibrations involved the use of a reference bulb containing 5-fluorotryptophan (5-FTP) and acetic acid-d (AcOH-d). Tumors were excised immediately after MRS examination and original drug levels determined by high performance liquid chromatography (HPLC), as described in Example 6.
It is assumed that the retention of high concentrations of ^19 F at 6 hr, despite the much lower (20 fold) concentration of original drug detected by HPLC at […], represent one or more nitro-reduced metabolites.
The retention of drug signal in RIF-1 tumors is plotted as a function of tumor weight in FIG. 7. Tumor ^19 F signal levels at 6 hrs and 45 min were calculated in μmol/g tumor. The retention of ^19 F at 6 hrs relative to 45 min in the same tumors was compared to corresponding tumor weights in grams. In this tumor model (a low hypoxic fraction tumor) the relative retention (6 hrs/45 min) correlated with tumor weight (corr. coeff.=0.83).

The subject of series [4] is C3H mouse mammary tumor. Description: influence of carbogen breathing on SR 4554 retention within the C3H mouse mammary tumor. It counts as in vivo. The text has this:
Table 4 presents the influence of high levels of oxygen (carbogen breathing) on SR 4554 retention within the C3H mouse mammary tumor.

A short description of series [5]: solubility in 0.9% saline solution.
For series [6], the system named is EMT-6 tumors. Description: retention in EMT-6 tumor-bearing Balb/c mice by 19F magnetic resonance spectroscopy. It counts as in vivo, mouse. As for the experimental part: as §2
RIF-1 and EMT-6 tumors have a low and a high radiobiological hypoxic fraction, respectively. Moulder et al. (1984), supra.

A short description of series [7]: log P (lipophilicity). It counts as physicochemical.
Series [8] relates to SCCVII tumor. Description: SR 4554 retention and oxygen electrode measurement in SCCVII tumor. It counts as in vivo. As for the experimental part:
(§3) Tumor oxygenation measurements were performed 3 hours after SR 4554 administration using a polarographic needle oxygen electrode.

The subject of series [9] is murine and human tumor xenografts. Description: retention of 19F signal in murine and human tumor xenografts by MRS. It counts as in vivo, mouse; human. Here is the method:
In addition to the above experiment, more extensive in vivo experiments have been performed. In order to assess the oxygenation status of various murine and human tumor xenografts, the retention of ^19 F signal as measured by MRS was evaluated following SR 4554 administration. The data shown in FIG. 8 represent the mean ±SD of the ratios of ^19 F retention (μmol/g) at 6 hrs relative to 45 mins. RIF1 (fibrosarcoma), EMT6 ([…]) and KHT (adenocarcinoma) are murine tumors whereas HT29 (colon carcinoma), BB (colon carcinoma), WIL (non-small cell lung carcinoma) and HN5 (squamous cell carcinoma of the head and neck) are human tumor xenografts. Importantly, the data illustrates the varying degree of retention of SR 4554 by the different tumors.
Background: In xenograft studies the graft and the host belong to different species.

The test system of series [10] is cytochrome P450 reductase. Kind of series: reduction by purified rat cytochrome P450 reductase under hypoxia. It counts as in vitro ADME. The conditions noted are these: 100% nitrogen.
From the text: as §1

Series [11] relates to C3H-mammary tumor. Kind of series: SR 4554 retention and oxygen electrode measurement in C3H-mammary tumor. It counts as in vivo, mouse. As for the experimental part: as §3
The mark [12] stands for this setting: per amount injected 3.34-3.55 mg.

In the case of `O=C(Cn1ccnc1[N+](=O)[O-])NCC(O)C(F)(F)F` (racemic) [SR 4554], the reduced under hypoxia result in [1] and in series [10] was “reduced” in each case. The dose excreted in series [2] (mouse, read-out: detected as unchanged parent compound in urine) is at most 66%. In addition, the “Amount of Drug Excreted” value in series [2] (setting [12]) is 2.62 mg and 2.39 mg and 1.83 mg. Moreover, the “Fraction of Dose Excreted” value in series [2] (setting [12]) is 73.80% and 71.56% and 52.59%. In addition, the “Retention (mean ± S.D.), + hydralazine” value in [3] (RIF-1 + hydralazine 1 h prior, n = 6) stood at 1.27 ± 0.50. The “Retention (mean ± S.D.)” value in [3] (RIF-1, 180 mg/kg i.p., n = 13, tumor weight 0.5 to 2.7 g) is given as 0.53 ± 0.27; in series [6] (EMT-6, 180 mg/kg i.p., n = 12), 1.04 ± 0.66. Further, the “clearance from the brain and retention in tumors” value in [3] (RIF-1 mice) was “rapidly cleared from the brain but selectively retained in tumors”. Moreover, the “tumor drug level, 7 hrs (HPLC)” value in series [3] (RIF-1 tumor, original drug, 7 hrs, HPLC) was 0.009 μmol/g tissue and 0.008 μmol/g tissue and 0.007 μmol/g tissue. Moreover, the “concentration of original drug (HPLC, 7 hrs) lower than 19F (MRS, 6 hr)” value in series [3] (RIF-1 tumors) is recorded as 20 fold. Besides, in series [3] (hydralazine 1 h prior), the “increase in retention on hydralazine pre-treatment” value is reported as “two-fold increase”. Further, the “Retention, air breathing” value in series [4] (Air (20% O2)) is 0.62 +/- 0.17. In addition, the “Retention, carbogen breathing” value in [4] (Carbogen (95% O2)) is 0.11 +/- 0.05. Also, in [4] (carbogen vs air), the “reduction in retention, carbogen vs air” value was “significant (P<0.01) reduction”. The molecule also came in with a solubility in [5] of 23 mM (≈ 6490 µg/mL). The “retention in EMT-6 compared with RIF-1 tumors” value in series [6] (MRS) was “greater in EMT-6 tumors than in RIF-1 tumors”. The molecule also had a logP in series [7] of -0.2. Moreover, the “SR 4554 Retention (mean ± SD)” value in series [8] is 0.57 +/- 0.14; in [11] it was 0.79 +/- 0.36. In addition, the “retention in human tumor xenografts vs murine tumors (6 hrs relative to 45 mins)” value in [9] (HT29, BB, WIL, HN5 vs RIF1, EMT6, KHT) was “Apart from the WIL tumor, the retention of the drug in human tumor xenografts were lower than for the murine tumors”. The “trend of retention with hypoxic fraction” value in series [9] (murine and human tumors) was “tumors which are known to have a greater hypoxic fraction retained more SR 4554”.

Source of the values: US5721265A, “Fluorinated 2-nitroimidazole analogs for detecting hypoxic tumor cells” (priority 1995, dated 1998).
